For one compound, IC50 results are on record in article PMC10791743, “Selective CK1α degraders exert antiproliferative activity against a broad range of human cancer cell lines” (Nature Communications, 2024).

Common to all, as to experiment: cells
What all share (set-up): Oncolines panel cell viability, ATPlite 1Step luminescence, duplicate 9-point dose response, IC50
For orientation: ATP-based viability assays read luminescence as a measure of living cells.

The test system of experiment [1] is Kasumi-1. The conditions noted are these: Homo sapiens, Kasumi 1; 72 h viability; read-out: SJ3149. The procedure: (§1) Cell viability assays were performed as previously described. In brief, cells were seeded in a 384-well plate at an optimized density. The starting cell number was determined after 24 h incubation by adding ATPlite 1Step (Perkin Elmer, Groningen, the Netherlands) to each well and recording luminescence on an Envision multimode reader (Perkin Elmer, Waltham, MA). After the addition of a duplicate 9-point dilution series of SJ3149, cells were incubated for another 72 h, followed by cell counting using ATPlite 1Step. The dilution series ranged from 3.2 to 31,600 nM or was diluted 100-fold for the most sensitive cell lines to ideally capture the complete dose–response curve. Percentage viability was determined at each compound concentration by relating the observed signal to a vehicle-treated control, that is, medium containing 0.4% (v/v) DMSO. Compound IC50 values were calculated by fitting a 4-parameter logistic curve to the percentage viability values using IDBS XLfit5 (IDBS, Guildford, UK). The IC50 was limited to the maximum tested compound concentration when the IC50 exceeded the maximum tested concentration. […] To evaluate the compound’s effect and potential therapeutic application across a diverse range of human cancers, we profiled SJ3149 in Oncolines® panel consisting of 115 human cancer cell lines, of which 86 were solid tumor and 29 hematologic cell lines, including MOLM-13. Effect on cell viability was monitored using ATPLite™ (Perkin Elmer), which measures intracellular ATP content as an indirect readout of cell number, like CellTiter Glo.

The subject of experiment [2] is Hs 746T. The conditions noted are these: Homo sapiens, Hs746T; 72 h viability; read-out: SJ3149. The protocol:
as §1

Experiment [3] relates to SK-N-AS. The settings on record: Homo sapiens, SK-N-AS; 72 h viability; read-out: SJ3149. The procedure:
as §1

Experiment [4] concerns SHP-77. The settings on record: Homo sapiens, SHP77; 72 h viability; read-out: SJ3149. The procedure:
as §1

Experiment [5] concerns BxPC-3. The conditions noted are these: Homo sapiens, BXPC-3; 72 h viability; read-out: SJ3149. The procedure:
as §1

Experiment [6] concerns COLO 829. The settings on record: Homo sapiens, COLO-829; 72 h viability; read-out: SJ3149. The protocol: as §1
The test system of experiment [7] is LS411N. The settings on record: Homo sapiens, LS-411N; 72 h viability; read-out: SJ3149. The protocol: as §1
Experiment [8] concerns HT. The conditions noted are these: Homo sapiens, HT; 72 h viability; read-out: SJ3149. The procedure:
as §1

For experiment [9], the system named is AP-1060. The conditions noted are these: 72 h viability; read-out: SJ3149. The protocol: as §1
Experiment [10] relates to U-2 OS. The settings on record: Homo sapiens, U2OS; 72 h viability; read-out: SJ3149. The protocol:
as §1

Experiment [11] deals with MeWo. The conditions noted are these: Homo sapiens, MeWo; 72 h viability; read-out: SJ3149. The protocol:
as §1

Experiment [12] concerns A-704. The settings on record: Homo sapiens, A704; 72 h viability; read-out: SJ3149. The procedure: as §1
Experiment [13] deals with Hs 766T. The settings on record: Hs766T; 72 h viability; read-out: SJ3149. The procedure: as §1
Experiment [14] relates to CCF-STTG1. The conditions noted are these: Homo sapiens, CCF-STTG1; 72 h viability; read-out: SJ3149. The procedure: as §1
Experiment [15] relates to SW837. The conditions noted are these: Homo sapiens, SW837; 72 h viability; read-out: SJ3149. The protocol: as §1
Experiment [16] has as its system G-361. The settings on record: Homo sapiens, G-361; 72 h viability; read-out: SJ3149. The procedure: as §1
In experiment [17] the test system is MG-63. The settings on record: Homo sapiens, MG-63; 72 h viability; read-out: SJ3149. The procedure: as §1
The subject of experiment [18] is Daoy. The settings on record: Homo sapiens, Daoy; 72 h viability; read-out: SJ3149. The protocol:
as §1

For experiment [19], the system named is DLD-1. The settings on record: Homo sapiens, DLD-1; 72 h viability; read-out: SJ3149. The protocol:
as §1

For experiment [20], the system named is Hs 578T. The conditions noted are these: Homo sapiens, Hs-578T; 72 h viability; read-out: SJ3149. The protocol:
as §1

On to `O=C1CCC(N2Cc3cc(Nc4noc5ccccc45)ccc3C2=O)C(=O)N1` (centres unmarked) [SJ3149], for which the IC50 in [1], in experiment [2], in experiment [3], in [4], in experiment [5] and in [6] was above 31.6 µM each time. Moreover, the IC50 is above 31.6 µM in [7]; above 31.6 µM in experiment [8]; 0.00135 µM in [9]; above 31.6 µM in [10]; above 31.6 µM in [11]; above 31.6 µM in experiment [12]. Moreover, the IC50 in experiment [13], in experiment [14], in experiment [15], in [16], in experiment [17] and in experiment [18] was above 31.6 µM each time. The IC50 in experiment [19] and in experiment [20] was above 31.6 µM each time.
